Reference: US11135322B2, “Radiofluorination method” (GE HEALTHCARE LIMITED, priority 2012, dated 2021)

Assay: Hydrolytic stability of the metal halide complexes in aqueous solution (19F and 71Ga NMR studies)
Format: physicochemical
From the text: ^19F and ^71Ga NMR studies show complete conversion to [GaF3(Me3-tacn)]. Furthermore they confirm that the structure of the complex is retained in solution. […] The structure has also been confirmed crystallographically (FIG. 2). This provides clear evidence that direct incorporation of fluoride into the coordination sphere of carefully selected metal ions is entirely feasible, as well as establishing the high stability of the resulting fluoro complexes, even in aqueous solution.

[GaF3(Me3-tacn)].4H2O
resistance to hydrolysis / hydrolytic stability (aqueous solution): resistant to hydrolysis
stability relative to analogous halide or metal complexes (comparison with analogues): considerably more stable than the chloride and bromide analogues
